Experimental data as given in article PMC4158172 (European Journal of Clinical Pharmacology, 2014).
Read-outs that look alike come from different tables or passages of the source.

Columns and labels:
[1] = EFV product label, cited from earlier work
[2] = EFV plasma pharmacokinetics when co-administered with DTG, by CYP2B6 genotype; conditions: for AUC / Cmax / concentration at 24 h / Tmax / half-life: human; for AUC: AUC(0–τ); for Cmax: C max; for concentration at 24 h: C τ; for Tmax: T max; for half-life: t½
Experimental: This was a phase I, open-label, single-sequence, two-period, steady-state study. Subjects received DTG at a dose of 50 mg (two 25 mg tablets) every 24 hours (q24h) for 5 days (period 1), and then the combination of morning DTG 50 mg and evening EFV 600 mg q24h was given for 14 days (period 2). There was no washout between treatment periods. All doses were administered in the fasting state. Serial PK plasma samples were collected after each period for DTG, and samples after period 2 were also collected for EFV. The metabolic profile of DTG was evaluated in plasma and urine using pooled samples for each subject to assist in establishing the mechanism of any potential drug interaction (see Supplementary Material).
Dolutegravir and EFV were measured in plasma samples using validated methods, which consisted of extraction from plasma by protein precipitation with acetonitrile containing [^15N^2H7]dolutegravir or [^2H4]-efavirenz as the internal standards, respectively. The plasma extracts were injected onto a 2.1 × 50 mm 3.5-micron XBridge™ C18 column (Waters Associates, Milford, MA, USA). Dolutegravir was eluted with a mobile phase consisting of 40 % acetonitrile in aqueous 0.1 % formic acid, and EFV was eluted with a mobile phase consisting of acetonitrile/0.1 % formic acid (65 % v/v) in a 5-mM ammonium acetate buffer containing 0.1 % acetic acid (35 % v/v). The eluates were detected by using a Sciex API 4000™ (AB Sciex, Framingham, MA, USA) equipped with a TurboIonSpray® ionisation source with multiple reaction monitoring (DTG positive ion mode m/z 420 > 277; internal standard m/z 428 > 277; EFV negative ion mode m/z 314 > 243; internal standard m/z 318 > 247). Data acquisition and processing were performed with Analyst 1.4.2 software (AB Sciex), and linear regression analysis calculations were performed using the Study Management System, SMS™ 2000 v.2.2 (GlaxoSmithKline, Research Triangle Park, NC, USA). The calibration range for DTG was 0.020 to 20 μg/mL and for EFV was 0.10 to 20 μg/mL. Quality control samples prepared separately at three concentrations were stored with study samples and analysed with each batch of samples against separately prepared calibration standards.
A non-compartmental PK analysis of the concentration-time data was performed with WinNonlin (version 5.2, Pharsight Corporation, Mountain View, CA, USA). Plasma PK parameters for both DTG and EFV were calculated using actual recorded times for each treatment. Parameters that were determined included AUC from time zero to the end of the dosage interval (AUC(0–τ)), maximum observed plasma concentration (C max), the time of maximum observed plasma concentration (T max) and plasma concentration at the end of the dosing interval (C τ).
A blood sample was taken from 9 of 12 subjects in the EFV study who gave consent for pharmacogenetic analysis, and genomic DNA was extracted. Twenty-three polymorphisms from five genes/gene regions previously implicated in EFV metabolism were genotyped (Table 1). Only polymorphisms possibly conferring reduced enzyme activity were investigated. Due to the small number of samples available, no statistical modelling was planned or performed. However, the probabilities for each possible experimental outcome, based on the distribution of polymorphism carrier status between cases and controls and an assumption of no genetic association, were calculated a priori.

[3] = design: method as in PMID 18769354; conditions: EVG 200 mg once daily with TPV/r 500/200 mg twice daily, healthy subjects; cited from earlier work
[4] = Urinary metabolic profile of DTG (pooled urine); format: in vivo, human; conditions: pooled urine 0-24 h, n=12, mean (standard deviation)
Experimental: (§1) There was no washout between treatment periods. All doses were administered in the fasting state.
(§2) Urine samples were collected at intervals of 0 to 12 hours and 12 to 24 hours after each treatment period. Individual urine pools were produced for each subject in a given treatment group by combining proportional volumes (% of total volume) from the 0- to 12-hours and 12- to 24-hours collections. Individual pooled human plasma samples were prepared for each subject and treatment group.
(§3) Each pooled plasma sample was mixed with aqueous EDTA disodium salt solution (10 mg/mL) and subsequently extracted 3 times with methanol and acetonitrile. Pooled urine samples were lyophilised and the residue was reconstituted in water:methanol (90:10 v/v). Drug-related components in plasma extracts and urine samples were separated on a 100 × 4.6 mm 3.5-micron Symmetry C18 column (Waters Associates) at 40°C by a step-gradient elution method with a mobile phase composition of water:acetonitrile containing 0.1% ammonium acetate starting at 95:5 (v/v) and ending at 5:95 (v/v) over 50 minutes. The eluate was analysed by multistage mass spectrometry (MSn) using an LTQ Orbitrap™ Hybrid Mass Spectrometer with Xcalibur 2.07 software (Thermo Fisher Scientific, Bremen, Germany). Data-dependent scanning using an accurate mass list, consisting of all previously characterised metabolites, was used in addition to analysis of pre-dose samples to aid in the distinction of drug-related material from endogenous components.

[5] = Plasma metabolic profile of DTG (pooled plasma); format: in vivo, human; conditions: pooled plasma, both treatment groups
Experimental: as §1, §2
as §3, with “Data-dependent scanning using an accurate mass list, consisting of all previously characterised metabolites, was used in addition to analysis of pre-dose samples to aid in the distinction of drug-related material from endogenous components.” left out

[6] = with TPV/r; cited from earlier work
[7] = in vivo; cited from earlier work
[8] = tested on: CYP3A4/5; conditions: in vivo, cited from earlier work
[9] = Safety evaluations, interaction study with TPV/r; format: in vivo, human
Experimental: In both studies, safety evaluations [adverse event (AE) reporting, clinical chemistry laboratory tests, urinalysis, vital signs and electrocardiogram] were performed throughout the study. Given the known hepatotoxicity profile of TPV/r, more frequent monitoring of liver chemistries was performed in the TPV/r study, and conservative stopping criteria were employed such that any subject reaching a grade 2 increase in alanine aminotransferase (ALT) or aspartate aminotransferase (AST) was discontinued from the trial. Both trials were conducted as inpatient studies with subjects housed in the unit for the duration of the study. The studies were conducted in accordance with the principles of the Declaration of Helsinki. A written informed consent was obtained from all subjects, and both protocols were approved by the institutional review board of the study sites.

[10] = in vivo, EFV with DTG, CYP2B6*1/*1 or *1/*6 subjects n=6, geometric mean (CV%)
[11] = in vivo, EFV with DTG, CYP2B6*6/*6 subjects n=3, geometric mean (CV%)
[12] = in vivo, EFV with DTG, all subjects n=12, geometric mean (CV%)

Compound: O=C1Nc2ccc(Cl)cc2[C@@](C#CC2CC2)(C(F)(F)F)O1 [EFV, efavirenz]
- mean C max [1]: 4070 ng/mL
- Cmax ([1]; read-out: mean C max): 12.9 µM
- C τ ([2]; EFV with DTG, CYP2B6*1/*1 or *1/*6 subjects n=6, geometric mean (CV%)): 1.45 (40) μg/mL
- AUC [2, 10]: 55700 ng·h/mL
- AUC [2, 11]: 174000 ng·h/mL
- AUC [2, 12]: 84200 ng·h/mL
- Cmax ([2]; in vivo, EFV 600 mg q24h with DTG 50 mg, all subjects n=12, geometric mean (CV%)): 6020 ng/mL
- Cmax [2, 10]: 4520 ng/mL
- Cmax [2, 11]: 9500 ng/mL
- concentration at 24 h [2, 11]: 5850 ng/mL
- concentration at 24 h [2, 12]: 2410 ng/mL
- Tmax ([2]; in vivo, EFV with DTG, CYP2B6*1/*1 or *1/*6 subjects n=6, median (range)): 2.5 h
- Tmax ([2]; in vivo, EFV with DTG, CYP2B6*6/*6 subjects n=3, median (range)): 2 h
- Tmax ([2]; in vivo, EFV with DTG, all subjects n=12, median (range)): 2.5 h
- half-life [2, 10]: 15.6 h
- half-life [2, 11]: 39.1 h
- half-life [2, 12]: 22.2 h
- EFV exposures in CYP2B6*6 homozygous subjects relative to CYP2B6*1/*1 or *1/*6 carriers ([2]; in vivo): two- to fourfold higher

Compound: COc1cc2c(cc1Cc1cccc(Cl)c1F)c(=O)c(C(=O)O)cn2[C@H](CO)C(C)C [EVG, Elvitegravir]
- changes in PK [3]: No significant changes

Compound: C[C@@H]1CCO[C@H]2Cn3cc(C(=O)NCc4ccc(F)cc4F)c(=O)c(O[C@@H]4O[C@H](C(=O)O)[C@@H](O)[C@H](O)[C@H]4O)c3C(=O)N12 [M2]
- % DTG ([4]; DTG 50 mg + EFV q24h): 1,633 (607) %
- % Total drug-related response ([4]; DTG 50 mg + EFV q24h): 79.8 (9.3) %
- % DTG ([4]; DTG 50 mg q24h): 1,188 (275) %
- % Total drug-related response ([4]; DTG 50 mg q24h): 72.8 (10.9) %
- amount in plasma relative to DTG (mean) [5]: < 2 % of DTG

Compound: C[C@@H]1CCO[C@H]2Cn3cc(C(=O)NC(O)c4ccc(F)cc4F)c(=O)c(O)c3C(=O)N12 (stereo partly shown) [M3]
- % DTG ([4]; DTG 50 mg + EFV q24h): 38.8 (48.6) %
- % Total drug-related response ([4]; DTG 50 mg + EFV q24h): 1.9 (2.4) %
- % DTG ([4]; DTG 50 mg q24h): 51.9 (57.3) %
- % Total drug-related response ([4]; DTG 50 mg q24h): 2.9 (2.6) %

Compound: Cc1nnc(C(=O)NC(C)(C)c2nc(C(=O)NCc3ccc(F)cc3)c(O)c(=O)n2C)o1 [RAL, raltegravir]
- decrease of AUC(0–12) [6]: 24%

Compound: CC(C)CN(C[C@@H](O)[C@H](Cc1ccccc1)NC(=O)O[C@H]1CCOC1)S(=O)(=O)c1ccc(N)cc1 [amprenavir]
- decrease of Cmin [7]: 56%

Compound: CC(C)(C)NC(=O)[C@@H]1C[C@@H]2CCCC[C@@H]2CN1C[C@@H](O)[C@H](Cc1ccccc1)NC(=O)[C@H](CC(N)=O)NC(=O)c1ccc2ccccc2n1 [saquinavir]
- decrease of Cmin [7]: 80%

Compound: tipranavir/ritonavir [TPV/r]
- effect on CYP3A4/5 ([8]; after a single dose): moderately inhibits
- effect on CYP3A4/5 ([8]; after repeated dosing): induces
- subjects reporting nausea ([9]; healthy subjects n=18): 22%
- subjects reporting vomiting ([9]; healthy subjects n=18): 11%
- subjects with grade 2 increases in AST ([9]; n=18, began during TPV/r alone (period 2)): Three
- subjects with grade 2 increases in ALT leading to discontinuation ([9]; n=18, began during TPV/r alone (period 2), considered related to TPV/r): Four
